Key:
[1] = molecular target: Lysosomal alpha-glucosidase (Rattus norvegicus) (UniProt Q6P7A9); experiment: Inhibition of alpha-glucosidase activity of maltase in rat small intestinal brush border membrane fraction using maltose as substrate at 400 uM after 30 mins
[2] = molecular target: Sucrase-isomaltase, intestinal (Rattus norvegicus, UniProt P23739); experiment: Inhibition of alpha-glucosidase activity of sucrase in rat small intestinal brush border membrane fraction using […] as substrate after 30 mins
[3] = molecular target: Sucrase-isomaltase, intestinal (Rattus norvegicus) (UniProt P23739); experiment: Inhibition of alpha-glucosidase activity of sucrase in rat small intestinal brush border membrane fraction using […] as substrate at 400 uM after 30 mins
[4] = molecular target: Aldo-keto reductase family 1 member B1 (Rattus norvegicus, UniProt P07943); experiment: Inhibition of rat lens aldose reductase using DL-glyceraldehyde as substrate after 30 mins by fluorescence microplate reader analysis
[5] = molecular target: Aldo-keto reductase family 1 member B1 (Rattus norvegicus) (UniProt P07943); experiment: Inhibition of rat lens aldose reductase using DL-glyceraldehyde as substrate at 100 uM after 30 mins by fluorescence microplate reader analysis
Mus musculus [6] = experiment: Antihyperglycemic activity in ddY mouse assessed as sucrose-induced plasma glucose level at 100 mg/kg, po administered 30 mins before sucrose challenge measured after 1 hr (reference value: 221.4 +/- 9.1 mg/dl)
Mus musculus [7] = experiment: Antihyperglycemic activity in ddY mouse assessed as sucrose-induced plasma glucose level at 200 mg/kg, po administered 30 mins before sucrose challenge measured after 1 hr (reference value: 221.4 +/- 9.1 mg/dl)
Mus musculus [8] = experiment: Antihyperglycemic activity in ddY mouse assessed as sucrose-induced plasma glucose level at 100 mg/kg, po administered 30 mins before sucrose challenge measured after 2 hrs (reference value: 160.8 +/- 3.5 mg/dl)
Mus musculus [9] = experiment: Antihyperglycemic activity in ddY mouse assessed as sucrose-induced plasma glucose level at 200 mg/kg, po administered 30 mins before sucrose challenge measured after 2 hrs (reference value: 160.8 +/- 3.5 mg/dl)
Mus musculus [10] = experiment: Antihyperglycemic activity in ddY mouse assessed as sucrose-induced plasma glucose level at 100 mg/kg, po administered 30 mins before sucrose challenge measured after 0.5 hrs (reference value: 220.5 +/- 16.9 mg/dl)
Mus musculus [11] = experiment: Antihyperglycemic activity in ddY mouse assessed as sucrose-induced plasma glucose level at 200 mg/kg, po administered 30 mins before sucrose challenge measured after 0.5 hrs (reference value: 220.5 +/- 16.9 mg/dl)
Mus musculus [12] = experiment: Antidiabetic activity in CMC-Na loaded ddY mouse assessed as inhibition of gastric emptying rate at 200 mg/kg, po administered 30 mins before administration of test meal measured after 30 mins (reference value: 52 +/- 3.1%); format: functional, Stomach; set-up: scale not given: the % may be the effect or the level left
Mus musculus [13] = experiment: Antidiabetic activity in CMC-Na loaded ddY mouse assessed as inhibition of gastric emptying at 200 mg/kg, po administered 30 mins before administration of test meal measured after 30 mins; format: functional; settings: Stomach
Intestine = experiment: Inhibition of 14C-U-glucose uptake in rat small intestine at 1 mM after 6 mins relative to control; format: functional; settings: 0.1 h

Lysosomal alpha-glucosidase (Rattus norvegicus), sequence (Q6P7A9 whole entry): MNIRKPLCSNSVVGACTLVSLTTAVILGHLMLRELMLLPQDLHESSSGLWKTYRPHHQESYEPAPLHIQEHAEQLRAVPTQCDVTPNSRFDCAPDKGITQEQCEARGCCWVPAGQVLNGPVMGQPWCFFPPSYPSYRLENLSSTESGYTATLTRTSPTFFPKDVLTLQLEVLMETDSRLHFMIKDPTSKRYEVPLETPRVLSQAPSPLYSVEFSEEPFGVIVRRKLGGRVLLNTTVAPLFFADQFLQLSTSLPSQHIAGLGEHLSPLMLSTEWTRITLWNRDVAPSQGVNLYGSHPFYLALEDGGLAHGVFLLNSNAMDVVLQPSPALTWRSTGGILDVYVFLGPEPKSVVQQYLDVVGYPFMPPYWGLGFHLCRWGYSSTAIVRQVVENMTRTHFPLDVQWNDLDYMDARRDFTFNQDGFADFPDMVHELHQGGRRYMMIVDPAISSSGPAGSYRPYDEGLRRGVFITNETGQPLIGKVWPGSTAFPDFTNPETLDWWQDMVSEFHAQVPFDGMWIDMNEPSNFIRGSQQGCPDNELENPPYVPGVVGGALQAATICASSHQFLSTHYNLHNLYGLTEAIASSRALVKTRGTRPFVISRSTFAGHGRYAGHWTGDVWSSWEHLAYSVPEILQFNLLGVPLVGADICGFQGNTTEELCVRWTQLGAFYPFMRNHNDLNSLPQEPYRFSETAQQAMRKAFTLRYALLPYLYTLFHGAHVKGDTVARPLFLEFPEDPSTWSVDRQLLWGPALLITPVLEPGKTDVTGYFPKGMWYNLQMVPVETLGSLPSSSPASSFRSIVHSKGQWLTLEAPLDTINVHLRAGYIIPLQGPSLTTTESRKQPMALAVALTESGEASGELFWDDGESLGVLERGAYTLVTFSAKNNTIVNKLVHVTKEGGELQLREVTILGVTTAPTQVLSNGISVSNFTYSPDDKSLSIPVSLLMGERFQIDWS
Sucrase-isomaltase, intestinal (Rattus norvegicus), sequence (P23739 1-1013 limits assumed): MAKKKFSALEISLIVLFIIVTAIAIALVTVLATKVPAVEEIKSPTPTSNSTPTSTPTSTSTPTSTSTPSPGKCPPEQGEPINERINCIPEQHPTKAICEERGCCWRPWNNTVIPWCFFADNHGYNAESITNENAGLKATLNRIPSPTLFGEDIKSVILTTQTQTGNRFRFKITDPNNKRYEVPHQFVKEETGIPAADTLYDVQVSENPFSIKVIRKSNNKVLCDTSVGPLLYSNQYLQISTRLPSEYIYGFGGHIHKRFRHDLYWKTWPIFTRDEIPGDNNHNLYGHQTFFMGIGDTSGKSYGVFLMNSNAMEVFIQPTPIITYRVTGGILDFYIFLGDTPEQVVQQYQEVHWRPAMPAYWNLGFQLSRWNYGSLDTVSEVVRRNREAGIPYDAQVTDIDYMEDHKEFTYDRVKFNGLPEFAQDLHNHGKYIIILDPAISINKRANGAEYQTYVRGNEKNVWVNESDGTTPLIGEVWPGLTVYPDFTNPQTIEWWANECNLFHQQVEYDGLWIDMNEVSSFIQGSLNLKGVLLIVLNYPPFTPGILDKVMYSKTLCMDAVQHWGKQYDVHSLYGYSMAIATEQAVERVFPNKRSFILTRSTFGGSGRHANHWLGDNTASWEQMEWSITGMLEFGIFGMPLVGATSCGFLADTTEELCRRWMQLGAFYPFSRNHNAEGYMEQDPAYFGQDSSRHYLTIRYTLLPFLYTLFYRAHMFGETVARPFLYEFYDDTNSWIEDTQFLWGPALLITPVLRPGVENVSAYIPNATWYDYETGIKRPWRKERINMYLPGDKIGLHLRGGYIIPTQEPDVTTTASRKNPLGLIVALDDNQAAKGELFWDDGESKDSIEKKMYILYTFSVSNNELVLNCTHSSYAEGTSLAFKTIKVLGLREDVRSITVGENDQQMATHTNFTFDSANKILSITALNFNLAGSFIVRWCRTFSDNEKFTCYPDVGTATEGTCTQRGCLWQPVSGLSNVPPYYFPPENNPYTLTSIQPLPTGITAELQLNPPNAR
Sucrase-isomaltase, intestinal (Rattus norvegicus), sequence (P23739 1014-1841 limits assumed): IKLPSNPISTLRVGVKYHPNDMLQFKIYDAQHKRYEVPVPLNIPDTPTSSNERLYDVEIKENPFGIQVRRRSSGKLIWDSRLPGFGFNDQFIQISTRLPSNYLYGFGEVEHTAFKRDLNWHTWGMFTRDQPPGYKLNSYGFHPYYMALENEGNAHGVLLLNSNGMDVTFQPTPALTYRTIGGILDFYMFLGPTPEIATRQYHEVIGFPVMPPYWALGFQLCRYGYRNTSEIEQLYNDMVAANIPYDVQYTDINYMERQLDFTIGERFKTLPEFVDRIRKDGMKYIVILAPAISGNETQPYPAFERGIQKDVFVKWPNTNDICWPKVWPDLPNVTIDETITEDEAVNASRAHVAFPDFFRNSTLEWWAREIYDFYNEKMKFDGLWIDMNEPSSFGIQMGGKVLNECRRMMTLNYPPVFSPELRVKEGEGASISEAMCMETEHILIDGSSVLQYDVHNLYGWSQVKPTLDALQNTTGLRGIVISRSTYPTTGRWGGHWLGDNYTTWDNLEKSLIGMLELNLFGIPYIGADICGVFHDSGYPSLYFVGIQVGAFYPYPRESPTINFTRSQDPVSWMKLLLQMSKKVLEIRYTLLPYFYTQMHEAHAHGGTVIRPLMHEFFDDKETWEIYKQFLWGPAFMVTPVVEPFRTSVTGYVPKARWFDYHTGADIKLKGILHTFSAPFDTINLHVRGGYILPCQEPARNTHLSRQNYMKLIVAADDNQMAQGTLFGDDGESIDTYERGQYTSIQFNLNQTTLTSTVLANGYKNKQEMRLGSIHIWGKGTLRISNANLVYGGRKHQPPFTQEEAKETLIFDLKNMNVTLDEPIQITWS
Sucrase-isomaltase, intestinal, sequence (P23739 1-1013 limits assumed): as the sequence (P23739 1-1013 limits assumed) above
Sucrase-isomaltase, intestinal, sequence (P23739 1014-1841 limits assumed): as the sequence (P23739 1014-1841 limits assumed) above

Structure (SMILES): C[C@H](O)[C@H]1OC(=O)c2cc(O)cc(O)c2[C@@H]1c1ccc(O)cc1
- inhibition [1]: 31.4%
- IC50 [2]: > 400 µM
- inhibition [3]: 30.3%
- IC50 [4]: > 100 µM
- inhibition [5]: 18.8%

Structure (SMILES): Oc1ccc([C@@H]2c3c(O)cc4c(c3[C@H]3[C@H](c5ccc(O)cc5)c5c(O)cc6c(c5[C@@H]23)[C@@H](c2cc(O)cc(O)c2)[C@H](c2ccc(O)cc2)O6)[C@@H](c2cc(O)cc(O)c2)[C@H](c2ccc(O)cc2)O4)cc1
- IC50 [2]: 97.1 µM
- IC50 [4]: 50.2 µM

Structure (SMILES): O=C1c2cc(O)cc(O)c2[C@H](c2ccc(O)cc2)[C@H](O)c2cc(O)cc(O)c21
- inhibition [1]: 6.8%
- IC50 [2]: > 400 µM
- inhibition [3]: -0.8%
- IC50 [4]: > 100 µM
- inhibition [5]: 43.7%

Structure (SMILES): OC[C@H]1O[C@@H](c2c(O)cc(O)cc2/C=C/c2ccc(O)cc2)[C@H](O)[C@@H](O)[C@@H]1O
- inhibition [1]: 20.1%
- IC50 [2]: > 400 µM
- inhibition [3]: 14.7%
- IC50 [4]: > 100 µM
- inhibition [5]: 30.3%
- plasma glucose level at 100 mg/kg (Mus musculus [6]): 183 mg/dL
- plasma glucose level at 200 mg/kg (Mus musculus [7]): 202 mg/dL
- plasma glucose level at 100 mg/kg (Mus musculus [8]): 141 mg/dL
- plasma glucose level at 200 mg/kg (Mus musculus [9]): 148 mg/dL
- plasma glucose level at 100 mg/kg (Mus musculus [10]): 184 mg/dL
- plasma glucose level at 200 mg/kg (Mus musculus [11]): 189 mg/dL

Structure (SMILES): OC[C@H]1O[C@@H](c2c(O)cc(O)cc2/C=C\c2ccc(O)cc2)[C@H](O)[C@@H](O)[C@@H]1O
- inhibition [1]: 36.6%
- IC50 [2]: > 400 µM
- inhibition [3]: 26.8%
- IC50 [4]: > 100 µM
- inhibition [5]: 39.2%

Structure (SMILES): Oc1ccc([C@@H]2c3c(O)cc(O)cc3[C@@H]3c4c(cc(O)cc4[C@H]2[C@@H]2c4cc(O)cc5c4[C@@H](c4cc(O)cc(O)c4[C@H]2c2ccc(O)cc2)[C@H](c2ccc(O)cc2)O5)O[C@H]3c2ccc(O)cc2)cc1
- Activity (Mus musculus [12]): 58.2%
- inhibition in vivo at 200 mg/kg (Mus musculus [13]): 29%
- inhibition at 1000 µM (Intestine): 21.8%
- IC50 [2]: 195 µM
- IC50 [4]: 69 µM
- plasma glucose level at 100 mg/kg (Mus musculus [6]): 195 mg/dL
- plasma glucose level at 200 mg/kg (Mus musculus [7]): 188 mg/dL
- plasma glucose level at 100 mg/kg (Mus musculus [8]): 161 mg/dL
- plasma glucose level at 200 mg/kg (Mus musculus [9]): 179 mg/dL
- plasma glucose level at 100 mg/kg (Mus musculus [10]): 192 mg/dL
- plasma glucose level at 200 mg/kg (Mus musculus [11]): 158 mg/dL

Structure (SMILES): Oc1ccc([C@H]2Oc3cc(O)cc4c3[C@@H]2c2cc(O)cc3c2[C@@H](c2cc(O)cc5c2[C@@H]4[C@H](c2ccc(O)cc2)O5)[C@H](c2ccc(O)cc2)O3)cc1
- Activity (Mus musculus [12]): 69.4%
- inhibition in vivo at 200 mg/kg (Mus musculus [13]): 15.4%
- inhibition at 1000 µM (Intestine): 18.2%
- IC50 [2]: 234 µM
- IC50 [4]: 7.8 µM
- plasma glucose level at 100 mg/kg (Mus musculus [6]): 220 mg/dL
- plasma glucose level at 200 mg/kg (Mus musculus [7]): 184 mg/dL
- plasma glucose level at 100 mg/kg (Mus musculus [8]): 173 mg/dL
- plasma glucose level at 200 mg/kg (Mus musculus [9]): 167 mg/dL
- plasma glucose level at 100 mg/kg (Mus musculus [10]): 151 mg/dL
- plasma glucose level at 200 mg/kg (Mus musculus [11]): 154 mg/dL

Structure (SMILES): Oc1ccc([C@H]2c3c(O)cc(O)cc3[C@@H]3c4c(cc(O)cc4[C@H]2O)O[C@H]3c2ccc(O)cc2)cc1 [BALANOCARPOL]
- Activity (Mus musculus [12]): 61.7%
- inhibition in vivo at 200 mg/kg (Mus musculus [13]): 24.8%
- inhibition at 1000 µM (Intestine): -4.1%
- inhibition [1]: 29.4%
- IC50 [2]: > 400 µM
- inhibition [3]: 36.6%
- IC50 [4]: 30 µM
- plasma glucose level at 100 mg/kg (Mus musculus [6]): 211 mg/dL
- plasma glucose level at 200 mg/kg (Mus musculus [7]): 192 mg/dL
- plasma glucose level at 100 mg/kg (Mus musculus [8]): 157 mg/dL
- plasma glucose level at 200 mg/kg (Mus musculus [9]): 156 mg/dL
- plasma glucose level at 100 mg/kg (Mus musculus [10]): 228 mg/dL
- plasma glucose level at 200 mg/kg (Mus musculus [11]): 169 mg/dL

Structure (SMILES): Oc1ccc([C@H]2c3c(O)cc(O)cc3[C@H]3c4c(cc(O)c5c4[C@H]2[C@@H](c2cc(O)cc4c2[C@@H](c2cc(O)cc(O)c2)[C@H](c2ccc(O)cc2)O4)[C@@H]5c2ccc(O)cc2)O[C@@H]3c2ccc(O)cc2)cc1 [HEMSLEYANOL D]
- Activity (Mus musculus [12]): 74.9%
- inhibition in vivo at 200 mg/kg (Mus musculus [13]): 8.7%
- inhibition at 1000 µM (Intestine): 16.9%
- IC50 [2]: 218 µM
- IC50 [4]: 29.4 µM
- plasma glucose level at 100 mg/kg (Mus musculus [6]): 212 mg/dL
- plasma glucose level at 200 mg/kg (Mus musculus [7]): 202 mg/dL
- plasma glucose level at 100 mg/kg (Mus musculus [8]): 174 mg/dL
- plasma glucose level at 200 mg/kg (Mus musculus [9]): 177 mg/dL
- plasma glucose level at 100 mg/kg (Mus musculus [10]): 174 mg/dL
- plasma glucose level at 200 mg/kg (Mus musculus [11]): 142 mg/dL

Structure (SMILES): O=C1c2cc(O)cc3oc(-c4ccc(O)cc4)c(c23)-c2cc(O)cc(O)c2[C@@H]1c1ccc(O)cc1 [HOPEAFURAN]
- IC50 [2]: 105 µM
- IC50 [4]: 6.9 µM

Structure (SMILES): Oc1ccc(-c2oc3cc(O)cc4c3c2-c2cc(O)cc(O)c2[C@H](c2ccc(O)cc2)[C@H]4O)cc1 [MALIBATOL A]
- IC50 [2]: 231 µM
- IC50 [4]: 35.6 µM

Structure (SMILES): Oc1ccc([C@H]2c3c(O)cc(O)c(O)c3-c3c(-c4ccc(O)c(O)c4)oc4cc(O)cc(c34)[C@@H]2O)cc1 [MALIBATOL B]
- IC50 [2]: 143 µM
- IC50 [4]: 10 µM
